Values quoted from earlier work, collected in patent publication US20040121407A1, “Regulation of the growth hormone/IGF-1 axis” (ELIXIR PHARMACEUTICALS, INC., priority 2002, published 2004).
Blank lines part the entries; values can stand above or below the compound they belong to.

Legend:
[1] = target: human SST2 (Homo sapiens, UniProt P30874)
[2] = test system: IGF-1 levels; conditions: administered subcutaneously
[3] = test system: GH secretion

Sequence of human SST2 (P30874 whole entry): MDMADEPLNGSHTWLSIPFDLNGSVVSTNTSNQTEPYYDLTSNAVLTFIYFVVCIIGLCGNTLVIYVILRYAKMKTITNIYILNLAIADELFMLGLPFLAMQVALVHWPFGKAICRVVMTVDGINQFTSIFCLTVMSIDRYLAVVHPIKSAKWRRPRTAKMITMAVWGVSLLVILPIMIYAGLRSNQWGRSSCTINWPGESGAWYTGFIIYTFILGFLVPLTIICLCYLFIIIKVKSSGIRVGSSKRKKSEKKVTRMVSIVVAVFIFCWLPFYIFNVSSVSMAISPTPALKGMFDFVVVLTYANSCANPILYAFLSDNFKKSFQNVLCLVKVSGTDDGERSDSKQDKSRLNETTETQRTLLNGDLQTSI

selectivity [1]: highly selective
Compound: CC(C)(C)OC(=O)[C@H](CCCCN)NC(=O)[C@@H](Cc1c[nH]c2ccccc12)NC(=O)N1CCC(n2c(=O)[nH]c3ccccc32)CC1 [L-054,522]

Compound: Pegvisomant: modified human GH in which nine amino acids have been replaced, with polyethylene glycol polymers; GH receptor antagonist
IGF-1 levels [2]: dose dependent reduction

Compound: [N-acetyl-Tyr^1,D-Arg^2] GHRH^1-29NH2 [standard GHRH antagonist]
human GH secretory response to exogenous GHRH ([3]; exogenous GHRH): inhibits
spontaneous GH secretion ([3]; in vivo): lowers
